Source: ChEMBL document CHEMBL1152560, “Substituted 2-arylbenzothiazoles as kinase inhibitors: hit-to-lead optimization” (Bioorg Med Chem, 2009)

Legend:
[1] = biological target: G protein-coupled receptor kinase 4 (Homo sapiens) (UniProt P32298); assay: Residual activity of GRK4 at 1 uM by microplate scintillation counting
[2] = biological target: Misshapen-like kinase 1 (Homo sapiens) (UniProt Q8N4C8); assay: Residual activity of MINK1 at 0.1 uM by microplate scintillation counting
[3] = biological target: T1, TGF-beta receptor type-1 (Homo sapiens) (UniProt P36897); assay: Residual activity of TGFB-R1 at 1 uM by microplate scintillation counting
T1 sequence (whole entry): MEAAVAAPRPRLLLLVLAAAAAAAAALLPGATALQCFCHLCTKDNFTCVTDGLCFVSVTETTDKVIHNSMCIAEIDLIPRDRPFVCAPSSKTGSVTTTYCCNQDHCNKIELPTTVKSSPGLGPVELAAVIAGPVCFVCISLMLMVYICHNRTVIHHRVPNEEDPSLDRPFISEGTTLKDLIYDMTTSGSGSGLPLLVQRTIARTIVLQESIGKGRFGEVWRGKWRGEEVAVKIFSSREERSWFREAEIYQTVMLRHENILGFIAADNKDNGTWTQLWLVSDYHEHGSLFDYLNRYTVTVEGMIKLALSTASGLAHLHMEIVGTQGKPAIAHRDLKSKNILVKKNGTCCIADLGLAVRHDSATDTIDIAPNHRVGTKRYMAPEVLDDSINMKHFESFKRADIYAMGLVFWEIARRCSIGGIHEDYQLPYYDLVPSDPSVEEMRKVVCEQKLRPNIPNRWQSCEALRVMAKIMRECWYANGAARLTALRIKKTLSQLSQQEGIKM

[4] = biological target: Tyrosine-protein kinase ABL2 (Homo sapiens) (UniProt P42684); assay: Residual activity of ABL2 at 10 uM by microplate scintillation counting
[5] = biological target: Tyrosine-protein kinase FRK (Homo sapiens) (UniProt P42685); assay: Residual activity of FRK at 10 uM by microplate scintillation counting
[6] = biological target: RAC-alpha serine/threonine-protein kinase (Homo sapiens) (UniProt P31749); assay: Residual activity of AKT1 at 10 uM by microplate scintillation counting
[7] = biological target: Calcium/calmodulin-dependent protein kinase type II subunit beta (Homo sapiens) (UniProt Q13554); assay: Residual activity of CAMK2B at 10 uM by microplate scintillation counting
[8] = biological target: Protein kinase C alpha type (Homo sapiens) (UniProt P17252); assay: Residual activity of PKCalpha at 10 uM by microplate scintillation counting
[9] = biological target: Cyclin-dependent kinase 4/cyclin D1 (Homo sapiens) (UniProt P11802+P24385); assay: Residual activity of CDK4/Cyclin D1 at 1 uM by microplate scintillation counting; format: protein-complex assay
[10] = biological target: Tyrosine-protein kinase BTK (Homo sapiens) (UniProt Q06187); assay: Residual activity of BTK at 0.1 uM by microplate scintillation counting
[11] = biological target: T2, Serine/threonine-protein kinase TAO2 (Homo sapiens) (UniProt Q9UL54); assay: Residual activity of TAOK2 at 10 uM by microplate scintillation counting
T2 sequence (whole entry): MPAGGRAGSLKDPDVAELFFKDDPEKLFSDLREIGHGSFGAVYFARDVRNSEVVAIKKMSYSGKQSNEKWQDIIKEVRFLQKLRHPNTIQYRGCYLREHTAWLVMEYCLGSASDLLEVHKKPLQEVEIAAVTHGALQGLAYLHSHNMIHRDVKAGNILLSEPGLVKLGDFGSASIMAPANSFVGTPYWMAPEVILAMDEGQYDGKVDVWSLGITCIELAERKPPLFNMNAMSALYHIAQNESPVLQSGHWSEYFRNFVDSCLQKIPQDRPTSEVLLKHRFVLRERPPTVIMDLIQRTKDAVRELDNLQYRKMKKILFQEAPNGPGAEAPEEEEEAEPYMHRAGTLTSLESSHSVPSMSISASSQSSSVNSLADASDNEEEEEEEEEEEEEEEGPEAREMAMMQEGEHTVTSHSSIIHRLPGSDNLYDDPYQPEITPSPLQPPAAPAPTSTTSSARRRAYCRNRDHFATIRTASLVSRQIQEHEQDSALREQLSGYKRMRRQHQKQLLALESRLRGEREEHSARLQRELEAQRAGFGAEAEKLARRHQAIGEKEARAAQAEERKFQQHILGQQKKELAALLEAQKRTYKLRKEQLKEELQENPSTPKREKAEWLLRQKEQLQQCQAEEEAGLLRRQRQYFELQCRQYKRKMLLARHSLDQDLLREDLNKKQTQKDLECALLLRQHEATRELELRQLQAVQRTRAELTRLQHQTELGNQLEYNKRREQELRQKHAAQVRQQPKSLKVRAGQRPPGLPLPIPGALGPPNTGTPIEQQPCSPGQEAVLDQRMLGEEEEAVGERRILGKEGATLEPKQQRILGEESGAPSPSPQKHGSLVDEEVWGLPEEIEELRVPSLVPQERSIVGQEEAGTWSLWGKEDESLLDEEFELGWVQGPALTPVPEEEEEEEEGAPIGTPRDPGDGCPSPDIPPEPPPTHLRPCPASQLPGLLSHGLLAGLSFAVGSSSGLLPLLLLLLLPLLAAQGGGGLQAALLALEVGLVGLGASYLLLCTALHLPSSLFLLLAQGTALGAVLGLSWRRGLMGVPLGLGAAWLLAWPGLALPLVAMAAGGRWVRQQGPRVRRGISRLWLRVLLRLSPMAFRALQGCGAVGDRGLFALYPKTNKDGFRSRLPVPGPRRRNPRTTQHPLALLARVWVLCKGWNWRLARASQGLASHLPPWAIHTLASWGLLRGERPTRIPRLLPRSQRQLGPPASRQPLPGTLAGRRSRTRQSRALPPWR

[12] = biological target: Serine/threonine-protein kinase N2 (Homo sapiens) (UniProt Q16513); assay: Residual activity of PRK2 at 0.1 uM by microplate scintillation counting

Sequence of Tyrosine-protein kinase FRK (Homo sapiens) (P42685 whole entry): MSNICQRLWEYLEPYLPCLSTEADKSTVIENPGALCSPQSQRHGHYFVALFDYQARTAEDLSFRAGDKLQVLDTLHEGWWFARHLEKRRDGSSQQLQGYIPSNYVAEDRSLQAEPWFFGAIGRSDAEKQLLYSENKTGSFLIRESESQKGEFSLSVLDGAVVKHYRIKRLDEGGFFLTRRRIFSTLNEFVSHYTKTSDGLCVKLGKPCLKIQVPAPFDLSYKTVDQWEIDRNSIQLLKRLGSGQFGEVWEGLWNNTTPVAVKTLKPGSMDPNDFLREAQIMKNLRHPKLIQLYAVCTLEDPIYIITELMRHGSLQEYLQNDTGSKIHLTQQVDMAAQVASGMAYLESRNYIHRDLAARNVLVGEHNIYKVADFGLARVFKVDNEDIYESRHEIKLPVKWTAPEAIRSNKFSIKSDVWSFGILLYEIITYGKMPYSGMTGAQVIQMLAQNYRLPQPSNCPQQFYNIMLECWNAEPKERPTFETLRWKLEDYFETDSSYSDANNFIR
Sequence of G protein-coupled receptor kinase 4 (Homo sapiens) (P32298 whole entry, looked up): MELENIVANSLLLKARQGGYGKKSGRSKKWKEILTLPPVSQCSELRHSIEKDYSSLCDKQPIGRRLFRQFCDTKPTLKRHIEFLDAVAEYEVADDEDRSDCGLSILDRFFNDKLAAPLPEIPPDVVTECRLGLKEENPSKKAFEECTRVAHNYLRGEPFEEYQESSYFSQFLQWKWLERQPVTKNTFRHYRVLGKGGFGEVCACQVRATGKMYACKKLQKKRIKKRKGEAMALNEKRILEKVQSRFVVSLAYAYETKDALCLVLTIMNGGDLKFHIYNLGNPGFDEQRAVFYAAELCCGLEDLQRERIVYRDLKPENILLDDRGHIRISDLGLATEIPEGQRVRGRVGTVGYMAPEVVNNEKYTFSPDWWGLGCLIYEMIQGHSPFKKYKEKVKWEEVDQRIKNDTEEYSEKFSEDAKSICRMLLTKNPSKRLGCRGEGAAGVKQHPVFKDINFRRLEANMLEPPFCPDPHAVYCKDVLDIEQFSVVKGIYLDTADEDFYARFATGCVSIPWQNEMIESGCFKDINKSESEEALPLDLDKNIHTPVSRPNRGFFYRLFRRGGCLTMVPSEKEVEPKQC
Sequence of Tyrosine-protein kinase ABL2 (Homo sapiens) (P42684 whole entry): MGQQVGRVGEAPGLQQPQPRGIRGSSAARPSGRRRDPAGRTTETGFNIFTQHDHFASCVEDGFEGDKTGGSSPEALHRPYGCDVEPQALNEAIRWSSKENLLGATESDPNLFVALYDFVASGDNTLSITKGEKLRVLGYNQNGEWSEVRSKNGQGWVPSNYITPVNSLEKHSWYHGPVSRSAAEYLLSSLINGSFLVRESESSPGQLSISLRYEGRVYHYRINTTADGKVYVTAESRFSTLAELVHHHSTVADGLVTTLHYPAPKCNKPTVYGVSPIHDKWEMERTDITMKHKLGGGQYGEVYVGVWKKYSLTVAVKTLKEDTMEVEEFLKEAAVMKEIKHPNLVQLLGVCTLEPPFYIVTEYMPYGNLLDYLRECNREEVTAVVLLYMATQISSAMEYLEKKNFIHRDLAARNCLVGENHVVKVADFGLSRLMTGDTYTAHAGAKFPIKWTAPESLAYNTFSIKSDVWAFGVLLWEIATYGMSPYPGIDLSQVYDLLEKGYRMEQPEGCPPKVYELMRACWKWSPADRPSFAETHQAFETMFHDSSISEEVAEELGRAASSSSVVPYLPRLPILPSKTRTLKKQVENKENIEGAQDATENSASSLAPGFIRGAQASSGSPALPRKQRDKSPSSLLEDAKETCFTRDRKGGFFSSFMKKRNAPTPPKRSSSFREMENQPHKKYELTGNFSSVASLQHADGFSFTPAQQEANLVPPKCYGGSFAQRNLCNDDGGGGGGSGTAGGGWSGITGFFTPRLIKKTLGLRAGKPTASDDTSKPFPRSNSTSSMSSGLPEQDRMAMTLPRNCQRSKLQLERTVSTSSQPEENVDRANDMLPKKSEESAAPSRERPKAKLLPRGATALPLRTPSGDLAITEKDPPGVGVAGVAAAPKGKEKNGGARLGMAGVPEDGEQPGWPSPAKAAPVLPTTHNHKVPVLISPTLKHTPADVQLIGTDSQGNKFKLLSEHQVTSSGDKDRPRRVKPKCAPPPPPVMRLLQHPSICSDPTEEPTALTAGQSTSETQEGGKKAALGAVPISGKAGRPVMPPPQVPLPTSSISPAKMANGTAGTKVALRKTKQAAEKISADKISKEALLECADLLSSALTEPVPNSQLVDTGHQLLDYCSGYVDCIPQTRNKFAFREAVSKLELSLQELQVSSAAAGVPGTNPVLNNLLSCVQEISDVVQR
Sequence of Misshapen-like kinase 1 (Homo sapiens) (Q8N4C8 whole entry, looked up): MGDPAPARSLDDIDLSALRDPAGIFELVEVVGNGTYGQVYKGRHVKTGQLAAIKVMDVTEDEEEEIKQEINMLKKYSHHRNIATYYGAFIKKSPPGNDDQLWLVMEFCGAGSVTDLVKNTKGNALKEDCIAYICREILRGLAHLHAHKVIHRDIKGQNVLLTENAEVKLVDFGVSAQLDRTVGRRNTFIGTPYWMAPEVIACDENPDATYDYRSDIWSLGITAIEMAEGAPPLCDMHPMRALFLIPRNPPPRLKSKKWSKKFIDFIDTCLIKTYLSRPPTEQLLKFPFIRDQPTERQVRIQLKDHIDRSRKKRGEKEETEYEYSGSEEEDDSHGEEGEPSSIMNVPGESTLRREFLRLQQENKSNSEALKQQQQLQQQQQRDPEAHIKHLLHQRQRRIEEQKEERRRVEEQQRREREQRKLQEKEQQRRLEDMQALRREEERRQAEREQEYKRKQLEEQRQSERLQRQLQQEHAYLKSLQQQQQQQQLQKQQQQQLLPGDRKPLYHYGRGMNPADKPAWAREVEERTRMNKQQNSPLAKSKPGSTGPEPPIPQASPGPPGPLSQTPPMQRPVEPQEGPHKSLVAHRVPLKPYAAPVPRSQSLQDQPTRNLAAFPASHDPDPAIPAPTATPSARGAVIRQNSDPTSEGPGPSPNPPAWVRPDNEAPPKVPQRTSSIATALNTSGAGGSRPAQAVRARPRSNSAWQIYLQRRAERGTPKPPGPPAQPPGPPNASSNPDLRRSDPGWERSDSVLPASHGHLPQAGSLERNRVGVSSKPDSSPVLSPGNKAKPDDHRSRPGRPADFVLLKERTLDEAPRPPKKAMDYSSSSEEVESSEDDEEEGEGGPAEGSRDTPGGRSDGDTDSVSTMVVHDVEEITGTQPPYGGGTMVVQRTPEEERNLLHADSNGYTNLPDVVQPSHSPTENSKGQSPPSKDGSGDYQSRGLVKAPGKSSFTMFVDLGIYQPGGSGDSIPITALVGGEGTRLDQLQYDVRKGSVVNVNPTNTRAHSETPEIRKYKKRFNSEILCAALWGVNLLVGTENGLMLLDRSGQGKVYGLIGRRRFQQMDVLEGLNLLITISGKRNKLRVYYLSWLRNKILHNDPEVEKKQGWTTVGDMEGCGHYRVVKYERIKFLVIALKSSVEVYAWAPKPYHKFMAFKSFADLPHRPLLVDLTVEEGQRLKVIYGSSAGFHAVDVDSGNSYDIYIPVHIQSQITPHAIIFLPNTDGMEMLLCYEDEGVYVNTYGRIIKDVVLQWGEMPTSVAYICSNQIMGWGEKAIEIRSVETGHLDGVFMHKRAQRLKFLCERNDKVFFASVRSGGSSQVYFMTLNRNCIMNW
Sequence of Tyrosine-protein kinase BTK (Homo sapiens) (Q06187 whole entry): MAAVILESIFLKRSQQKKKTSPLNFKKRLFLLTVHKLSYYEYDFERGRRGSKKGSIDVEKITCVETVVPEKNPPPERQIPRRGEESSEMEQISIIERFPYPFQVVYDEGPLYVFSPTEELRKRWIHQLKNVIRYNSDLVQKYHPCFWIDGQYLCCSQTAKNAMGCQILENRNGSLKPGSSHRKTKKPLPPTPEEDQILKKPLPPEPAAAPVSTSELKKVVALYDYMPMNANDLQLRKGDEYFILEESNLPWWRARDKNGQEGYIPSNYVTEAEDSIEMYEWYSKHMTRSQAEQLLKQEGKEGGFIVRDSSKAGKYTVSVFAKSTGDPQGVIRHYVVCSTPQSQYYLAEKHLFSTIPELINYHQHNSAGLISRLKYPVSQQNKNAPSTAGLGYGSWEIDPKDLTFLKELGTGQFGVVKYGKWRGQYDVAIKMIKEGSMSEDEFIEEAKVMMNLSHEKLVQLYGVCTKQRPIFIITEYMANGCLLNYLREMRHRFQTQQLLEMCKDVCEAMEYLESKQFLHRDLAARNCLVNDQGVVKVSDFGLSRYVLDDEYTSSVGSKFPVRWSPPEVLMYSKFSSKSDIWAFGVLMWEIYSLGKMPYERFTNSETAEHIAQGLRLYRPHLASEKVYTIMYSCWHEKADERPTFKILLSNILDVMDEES

Row | residual activity [1] | residual activity [2] | residual activity [3] | residual activity [4] | residual activity [5] | residual activity [6] | residual activity [7] | residual activity [8] | residual activity [9] | residual activity [10] | residual activity [11] | residual activity [12] | Compound
1 | 97% | 101% | 98% | 147% | 71% | 87% | 56% | 61% | 98% | 106% | 122% | 99% | COc1cc2c(Oc3ccc(-c4nc5ccccc5s4)cc3)ncnc2cc1OCCCN1CCCC1
2 | 106% | 77% | 107% | 93% | 24% | 105% | 58% | 50% | 94% | 101% | 129% | 72% | COc1cc2c(Oc3ccc(-c4nc5ccccc5s4)cc3F)ncnc2cc1OCCCN1CCN(C)CC1
3 | 94% | 77% | 103% | 170% | 61% | 120% | 67% | 80% | 100% | 100% | 141% | 65% | COc1cc2c(Oc3ccc(-c4nc5ccccc5s4)cc3)ncnc2cc1OCCCN1CCN(C)CC1
